What was measured:
[1] = Deodorization test 1; settings: Ammonia; for Reduction: initial 100 ppm, after 30 minutes; for Reduction / Concentration after 30 minutes: 0.2 ml of 10% by weight aqueous solution; for Concentration after 30 minutes: initial concentration 100 ppm
[2] = Deodorization test 1; settings: Trimethylamine; for Reduction: initial 20 ppm, after 30 minutes; for Reduction / Concentration after 30 minutes: 0.2 ml of 10% by weight aqueous solution; for Concentration after 30 minutes: initial concentration 20 ppm
[3] = Deodorization test 1; settings: Methyl mercaptan; for Reduction: initial 10 ppm, after 30 minutes; for Reduction / Concentration after 30 minutes: 0.2 ml of 10% by weight aqueous solution; for Concentration after 30 minutes: initial concentration 10 ppm
[4] = Deodorization test 1; settings: Formaldehyde, 0.2 ml of 10% by weight aqueous solution; for Reduction: initial 10 ppm, after 30 minutes; for Concentration after 30 minutes: initial concentration 10 ppm
[5] = Deodorization test 1; settings: Acetaldehyde; for Reduction: initial 10 ppm, after 30 minutes; for Reduction / Concentration after 30 minutes: 0.2 ml of 10% by weight aqueous solution; for Concentration after 30 minutes: initial concentration 10 ppm
[6] = Deodorization test 1; settings: Isovaleric acid; for Reduction: initial 10 ppm, after 30 minutes; for Reduction / Concentration after 30 minutes: 0.2 ml of 10% by weight aqueous solution; for Concentration after 30 minutes: initial concentration 10 ppm
[7] = Deodorization test 1; settings: Acetic acid; for Reduction: initial 20 ppm, after 30 minutes; for Reduction / Concentration after 30 minutes: 0.2 ml of 10% by weight aqueous solution; for Concentration after 30 minutes: initial concentration 20 ppm
[8] = Deodorization test 1; settings: Toluene, 0.2 ml of 10% by weight aqueous solution; for Reduction: initial 100 ppm, after 30 minutes; for Concentration after 30 minutes: initial concentration 100 ppm
[9] = Deodorization test 1; settings: Styrene, 0.2 ml of 10% by weight aqueous solution; for Reduction: initial 100 ppm, after 30 minutes; for Concentration after 30 minutes: initial concentration 100 ppm

SMILES	Reduction [1] [%]	Concentration after 30 minutes [1] [ppm]	Reduction [2] [%]	Concentration after 30 minutes [2] [ppm]	Reduction [3] [%]	Concentration after 30 minutes [3] [ppm]	Reduction [4] [%]	Concentration after 30 minutes [4] [ppm]	Reduction [5] [%]	Concentration after 30 minutes [5] [ppm]	Reduction [6] [%]	Concentration after 30 minutes [6] [ppm]	Reduction [7] [%]	Concentration after 30 minutes [7] [ppm]	Reduction [8] [%]	Concentration after 30 minutes [8] [ppm]	Reduction [9] [%]	Concentration after 30 minutes [9] [ppm]	also measured
N=C(N)NCCC[C@H](N)C(=O)O [Arginine]	10	90	5	19	0	10	0	10	10	9	0	10	15	17	0	100	0	100	–
N[C@@H](CS)C(=O)O [Cysteine]	100	0	100	0	0	10	20	8	0	10	20	8	20	16	10	90	10	90	deodorizing action (in words) [1]: excellent deodorizing action; deodorizing action (in words) [2]: excellent deodorizing action
NCC(=O)O [Glycine]	100	0	100	0	100	0	70	3	80	2	90	1	90	2	60	40	60	40	deodorizing action (in words) [1]: excellent deodorizing action; deodorizing action (in words) [2]: excellent deodorizing action; deodorizing action (in words) [3]: excellent deodorizing action; deodorizing action (in words) [5]: good results; deodorizing action (in words) [6]: good results; deodorizing action (in words) [7]: good results
NCCCC[C@H](N)C(=O)O [Lysine]	10	90	10	18	0	10	0	10	10	9	0	10	0	20	0	100	0	100	–
CSCC[C@H](N)C(=O)O [Methionine]	30	70	10	18	0	10	10	9	10	9	0	10	10	18	10	90	10	90	–
O=C(O)[C@@H]1CCCN1 [Proline]	10	90	5	19	0	10	0	10	20	8	0	10	0	20	0	100	0	100	–
N[C@@H](Cc1c[nH]c2ccccc12)C(=O)O [Tryptophan]	50	50	50	10	0	10	10	9	10	9	0	10	10	18	0	100	0	100	–
CC(C)[C@H](N)C(=O)O [Valine]	10	90	5	19	0	10	0	10	0	10	0	10	0	20	0	100	0	100	–
